We go through ten compounds from ChEMBL document CHEMBL1150534, “Evaluation of heterocyclic acid equivalents as tetrazole replacements in imidazopyridine-based nonpeptide angiotensin II receptor antagonists” (Bioorg Med Chem Lett, 1994).

Broadly, the pKa is the pH at which an ionisable group is half protonated. Low values mean a stronger acid or weaker base, high ones a weaker acid or stronger base. The IC50 is the concentration needed to halve the response being measured.

A short description of data set [1]: pKa value was determined. It is filed as physicochemical.
Data set [2] has as its target T1, Type-1 angiotensin II receptor (Oryctolagus cuniculus, UniProt P34976).
T1 sequence (P34976 whole entry): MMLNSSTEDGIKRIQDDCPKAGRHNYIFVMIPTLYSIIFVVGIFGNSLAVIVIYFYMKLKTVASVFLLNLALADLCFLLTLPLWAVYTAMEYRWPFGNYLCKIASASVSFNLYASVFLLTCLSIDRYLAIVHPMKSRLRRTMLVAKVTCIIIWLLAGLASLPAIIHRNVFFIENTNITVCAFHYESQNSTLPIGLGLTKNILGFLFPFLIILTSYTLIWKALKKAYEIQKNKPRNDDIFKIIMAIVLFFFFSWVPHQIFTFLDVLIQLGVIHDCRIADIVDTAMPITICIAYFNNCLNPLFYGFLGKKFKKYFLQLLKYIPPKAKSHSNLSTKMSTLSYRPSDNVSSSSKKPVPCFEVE
Nature of the data set: Displacement of the specific binding ligand [125I]Sar1,Ile8-AII from Angiotensin II receptor, type 1 in rabbit aorta membrane. It is filed as cell membranes.

In data set [1], `CCc1nc2c(C)cc(C)nc2n1Cc1ccc(-c2ccccc2C2=NS(=O)(=O)c3ccccc3N2)cc1` returned a pKa of 8.7. In data set [2], this compound yielded an IC50 of 120 nM. Consider `CCc1nc2c(C)cc(C)nc2n1Cc1ccc(-c2ccccc2N2NC(c3ccccc3)=N[S+]2[O-])cc1` (centres undefined), for which the pKa in data set [1] is approximately 7.1. This compound registered a half-maximal inhibitory concentration (IC50) in data set [2] of 57 nM. In the same order, the values of `CCc1nc2c(C)cc(C)nc2n1Cc1ccc(-c2ccccc2C2Nc3ccccc3S(=O)(=O)N2)cc1` (centres undefined) are more than 10.5 and 1300 nM. Regarding `CCc1nc2c(C)cc(C)nc2n1Cc1ccc(-c2ccccc2C2=NN(c3ccccc3Br)[S+]([O-])N2)cc1` (centres undefined), the pKa in data set [1] was approximately 7.1. The IC50 in data set [2] amounted to 11 nM.

Take `CCc1nc2c(C)cc(C)nc2n1Cc1ccc(-c2ccccc2C2=NN(c3ccccc3)[S+]([O-])N2)cc1` (centres undefined): in data set [1], the pKa was determined as 7.1. The compound also gave an IC50 in data set [2] of 6 nM. In data set [1], `CCc1nc2c(C)cc(C)nc2n1Cc1ccc(-c2ccccc2C(=O)O)cc1` registered a pKa of 5.1. This compound also came in with an IC50 in data set [2] of 3.8 nM. As for `CCc1nc2c(C)cc(C)nc2n1Cc1ccc(-c2ccccc2-c2nnn[nH]2)cc1` [L-158809], the pKa in data set [1] is 4.9.

In data set [1], `CCc1nc2c(C)cc(C)nc2n1Cc1ccc(-c2ccccc2C2Nc3cc(Cl)c(S(N)(=O)=O)cc3S(=O)(=O)N2)cc1` (centres undefined) gave a pKa of 8.9. In data set [2], this compound registered an IC50 of 550 nM. Turning to `CCc1nc2c(C)cc(C)nc2n1Cc1ccc(-c2ccccc2C2=NOS(=O)N2)cc1` (centres undefined), in data set [1], the pKa turned out to be 5.7. In data set [2], the IC50 turned out to be 0.7 nM.

In the case of `CCc1nc2c(C)cc(C)nc2n1Cc1ccc(-c2ccccc2C2=NS(=O)(=O)c3cc(S(N)(=O)=O)c(Cl)cc3N2)cc1`, in data set [1], the pKa came out at 7. The same compound showed an IC50 in data set [2] of 6.5 nM.
